The source of these data is ChEMBL document CHEMBL1759866, “Discovery of 2,4-bis-arylamino-1,3-pyrimidines as insulin-like growth factor-1 receptor (IGF-1R) inhibitors” (Bioorg Med Chem Lett, 2011).

One data set deals with Rattus norvegicus. Nature of the data set: In vivo clearance in Sprague-Dawley rat.
Data set [1] in a line: Oral bioavailability in CD1 mouse Calu6 tumor xenograft model at 5 mg/kg administered as suspension in 20% captisol in PBS. The note with it: in vivo. The class given is ADME, organism-based.
Data set [2] is described as follows: AUC in tumor of CD1 mouse Calu6 tumor xenograft model at 30 mg/kg, po administered twice daily as suspension in 1% Tween 80 and 1% HPMC in water. The class given is ADME, organism-based, Neoplasm. Details: dose 30 mg/kg, route oral.
The nature of data set [3]: Cmax in CD1 mouse Calu6 tumor xenograft model at 30 mg/kg, po administered twice daily as suspension in 1% Tween 80 and 1% HPMC in water. In kind it is ADME, organism-based. Details: dose 30 mg/kg, route oral. The note with it: in vivo.
A short description of data set [4]: Cmax in CD1 mouse Calu6 tumor xenograft model at 100 mg/kg, po administered twice daily as suspension in 1% Tween 80 and 1% HPMC in water. The class given is ADME, organism-based. More on the design: dose 100 mg/kg, route oral. The note with it: in vivo.
The nature of data set [5]: Cmax in tumor of CD1 mouse Calu6 tumor xenograft model at 100 mg/kg, po administered twice daily as suspension in 1% Tween 80 and 1% HPMC in water. More on the design: dose 100 mg/kg, route oral. In kind it is ADME, organism-based, Neoplasm.
Data set [6] in a line: Cmax in tumor of CD1 mouse Calu6 tumor xenograft model at 30 mg/kg, po administered twice daily as suspension in 1% Tween 80 and 1% HPMC in water. In kind it is ADME, organism-based, Neoplasm. Details: dose 30 mg/kg, route oral.
The nature of data set [7]: AUC in tumor of CD1 mouse Calu6 tumor xenograft model at 100 mg/kg, po administered twice daily as suspension in 1% Tween 80 and 1% HPMC in water. More on the design: dose 100 mg/kg, route oral. The class given is ADME, organism-based, Neoplasm.
The nature of data set [8]: Oral bioavailability in Sprague-Dawley rat at 5 mg/kg administered as suspension in 1% Tween 80 and 1% HPMC in water after 12 to 24 hrs by LC-MS analysis. The class given is ADME, organism-based. The note with it: in vivo.
Data set [9] in a line: Half life in Sprague-Dawley rat at 1 mg/kg, iv administered as solution in DSMO and 5 mg/kg, po administered as suspension in 1% Tween 80 and 1% HPMC in water after 12 to 24 hrs by LC-MS analysis. In kind it is ADME, organism-based. The conditions noted are these: in vivo.
Data set [10] can be described thus: Volume of distribution at steady state in CD1 mouse Calu6 tumor xenograft model at 1 mg/kg, iv administered as solution in DMSO and 5 mg/kg, po administered as suspension in 20% captisol in PBS. In kind it is ADME, organism-based. The note with it: in vivo, read-out: Vdss.
Data set [11] is described as follows: Clearance in Sprague-Dawley rat at 1 mg/kg, iv administered as solution in DSMO and 5 mg/kg, po administered as suspension in 1% Tween 80 and 1% HPMC in water after 12 to 24 hrs by LC-MS analysis. In kind it is ADME, organism-based. The note with it: in vivo.
Data set [12] can be described thus: in vivo. The note with it: CD1, mouse, tumor and plasma, po, 100 mg/kg.
Data set [13] in a line: Clearance in CD1 mouse Calu6 tumor xenograft model at 1 mg/kg, iv administered as solution in DMSO and 5 mg/kg, po administered as suspension in 20% captisol in PBS. The conditions noted are these: in vivo. The class given is ADME, organism-based.
The nature of data set [14]: Volume of distribution at steady state in Sprague-Dawley rat at 1 mg/kg, iv administered as solution in DSMO and 5 mg/kg, po administered as suspension in 1% Tween 80 and 1% HPMC in water after 12 to 24 hrs by LC-MS analysis. In kind it is ADME, organism-based. The note with it: in vivo, read-out: Vdss.
The nature of data set [15]: Half life in CD1 mouse Calu6 tumor xenograft model at 1 mg/kg, iv administered as solution in DMSO and 5 mg/kg, po administered as suspension in 20% captisol in PBS. The class given is ADME, organism-based. The conditions noted are these: in vivo.
A short description of data set [16]: in vivo. The conditions noted are these: CD1, mouse, tumor and plasma, po, 30 mg/kg.
Data set [17] can be described thus: in vivo. The note with it: CD1, mouse, tumor and plasma, po, 100 mg/kg, pH 3.5.
A short description of data set [18]: Volume of distribution at steady state in Sprague-Dawley rat at 2 mg/kg, iv administered as solution in DSMO and 5 mg/kg, po administered as suspension in 1% Tween 80 and 1% HPMC in water after 12 to 24 hrs by LC-MS analysis. In kind it is ADME, organism-based. The note with it: in vivo, read-out: Vdss.
Data set [19] in a line: AUC in tumor of CD1 mouse Calu6 tumor xenograft model at 100 mg/kg, po administered twice daily as suspension in 20% captisol in PBS of pH 3.5. Details: dose 100 mg/kg, route oral. The class given is ADME, organism-based, Neoplasm.
Data set [20] is described as follows: Volume of distribution at steady state in CD1 mouse Calu6 tumor xenograft model at 12 mg/kg, iv administered as solution in aqueous propylene glycol and 30 mg/kg, po administered as suspension in 20% captisol in PBS of pH 5.73. In kind it is ADME, organism-based. The note with it: in vivo, read-out: Vdss.
Data set [21] is described as follows: Half life in Sprague-Dawley rat at 2 mg/kg, iv administered as solution in DSMO and 5 mg/kg, po administered as suspension in 1% Tween 80 and 1% HPMC in water after 12 to 24 hrs by LC-MS analysis. The class given is ADME, organism-based. The note with it: in vivo.
Data set [22] in a line: Cmax in tumor of CD1 mouse Calu6 tumor xenograft model at 100 mg/kg, po administered twice daily as suspension in 20% captisol in PBS of pH 3.5. In kind it is ADME, organism-based, Neoplasm. Details: dose 100 mg/kg, route oral.
Data set [23] can be described thus: in vivo. The note with it: CD1, mouse, tumor and plasma, po, 30 mg/kg, pH 3.5.
A short description of data set [24]: Clearance in CD1 mouse Calu6 tumor xenograft model at 12 mg/kg, iv administered as solution in aqueous propylene glycol and 30 mg/kg, po administered as suspension in 20% captisol in PBS of pH 5.73. In kind it is ADME, organism-based. The conditions noted are these: in vivo.
Data set [25] is described as follows: Half life in CD1 mouse Calu6 tumor xenograft model at 12 mg/kg, iv administered as solution in aqueous propylene glycol and 30 mg/kg, po administered as suspension in 20% captisol in PBS of pH 5.73. In kind it is ADME, organism-based. The conditions noted are these: in vivo.
The nature of data set [26]: Cmax in CD1 mouse Calu6 tumor xenograft model at 30 mg/kg, po administered twice daily as suspension in 20% captisol in PBS of pH 3.5. In kind it is ADME, organism-based. More on the design: dose 30 mg/kg, route oral. The conditions noted are these: in vivo.
The nature of data set [27]: Cmax in tumor of CD1 mouse Calu6 tumor xenograft model at 30 mg/kg, po administered twice daily as suspension in 20% captisol in PBS of pH 3.5. The class given is ADME, organism-based, Neoplasm. More on the design: dose 30 mg/kg, route oral.
The nature of data set [28]: Clearance in Sprague-Dawley rat at 2 mg/kg, iv administered as solution in DSMO and 5 mg/kg, po administered as suspension in 1% Tween 80 and 1% HPMC in water after 12 to 24 hrs by LC-MS analysis. The class given is ADME, organism-based. The conditions noted are these: in vivo.
Data set [29] can be described thus: AUC in tumor of CD1 mouse Calu6 tumor xenograft model at 30 mg/kg, po administered twice daily as suspension in 20% captisol in PBS of pH 3.5. In kind it is ADME, organism-based, Neoplasm. Details: dose 30 mg/kg, route oral.
Data set [30] is described as follows: Cmax in CD1 mouse Calu6 tumor xenograft model at 100 mg/kg, po administered twice daily as suspension in 20% captisol in PBS of pH 3.5. In kind it is ADME, organism-based. More on the design: dose 100 mg/kg, route oral. The conditions noted are these: in vivo.

Take `COc1cc(Nc2nccc(Nc3cnc4ccccc4c3)n2)ccc1N1CCOCC1`: in the data set with Rattus norvegicus, the CL was found to be 2.9 L/h/kg.

One may read the bioavailability as dose-corrected exposure relative to a reference, in per cent. A low value points to poor availability. In general, AUC refers to concentration integrated over time. Low readings indicate low exposure, high ones high exposure. Usually Cmax stands for the peak of the concentration-time curve. The half-life is how long it takes for the measured level to halve. Low values mean rapid decline, high ones slow decline. In general, Kp refers to tissue or fluid exposure divided by exposure in the circulation. For `COc1cc(Nc2nccc(Nc3cnc4ccccc4c3)n2)cc(OC)c1OC`, the bioavailability is 63% in data set [1] and 33% in data set [8]. The AUC was 989 ng·h/mL in [2] and 5170 ng·h/mL in data set [7]. In addition, the Cmax in [3] worked out at 5.34 µM; in data set [4], 13.4 µM; in data set [5], 2720 nM; in [6], 525 nM. In addition, the half-life in [9] and in data set [15] was 102 min throughout. Moreover, the Vd in [10] was determined as 0.3 L/kg; in [14], 0.2 L/kg. The clearance in data set [11] is 6.67 mL/min/kg; in data set [13], 26.7 mL/min/kg. Further, the Kp in “in vivo [12]” stood at 0.18; in “in vivo [16]”, 0.129.

In the data set with Rattus norvegicus, `COc1cc(Nc2nccc(Nc3ccc4ccccc4c3)n2)cc(OC)c1OC` yielded a CL of 2.4 L/h/kg.

`COc1cc(Nc2nccc(Nc3cc4ccccc4cn3)n2)cc(OC)c1OC`: in the data set on Rattus norvegicus, the CL was found to be 2.4 L/h/kg.

For the molecule `COc1cc(Nc2nccc(Nc3ccc4ncccc4c3)n2)cc(OC)c1OC`, the bioavailability in data set [1] was 56%; in [8], 16%. The half-life in data set [9] is 78 min; in [15], 138 min. In addition, the Vd in data set [10] worked out at 1.8 L/kg; in [14] it was 1.1 L/kg. The clearance is 20 mL/min/kg in data set [11] and 107 mL/min/kg in data set [13].

In the data set with Rattus norvegicus, `COc1cc(Nc2nccc(Nc3ccc4[nH]ncc4c3)n2)cc(OC)c1OC` displayed a CL of 2.4 L/h/kg.

For the molecule `COc1cc(Nc2nccc(Nc3cnc4ccccc4c3)n2)cc(OC)c1`, in the data set with Rattus norvegicus, the CL is 2.9 L/h/kg.

As to `COc1ccc(Nc2nccc(Nc3cnc4ccccc4c3)n2)cc1Cl`, the CL in the data set with Rattus norvegicus worked out at 2.9 L/h/kg.

With `c1ccc2ncc(Nc3ccnc(Nc4ccc(OCCCN5CCCCC5)cc4)n3)cc2c1`, the Kp came to 81.9 in the data set “in vivo [17]” and 11.6 in the data set “in vivo [23]”. For the same molecule, the values for the Vd in [18] and in [20] were 9.5 L/kg and 28.1 L/kg, respectively. Also, the AUC came to 1120 µg·h/mL in data set [19] and 13300 ng·h/mL in data set [29]. The half-life in [21] is 726 min; in [25], 318 min. Besides, the Cmax is 143 µM in data set [22], 180 nM in [26], 1360 nM in data set [27] and 2220 nM in [30]. For the same molecule, the clearance was 98.3 mL/min/kg in [24] and 10 mL/min/kg in data set [28]. This molecule also displayed a bioavailability in data set [8] of 9%.

On to `COc1cc(Nc2nccc(Nc3cnc4ccccc4c3)n2)ccc1OCCCN1CCCCC1`, for which, in the data set on Rattus norvegicus, the CL was found to be 1.9 L/h/kg.
